We go through 26 compounds from PubChem BioAssay (NCI).

For orientation: TGI means the concentration at which net growth stops. Read a high TGI as less potent growth arrest. In general, GI50 refers to the concentration that inhibits growth by half.

Test systems include M14 melanoma; U251 CNS; TK-10 renal; SW-620 colon; K-562 leukemia; HOP-62 NSCLC; NCI-H226 lung.
What all share (test): DTP human tumour cell line panel, 48 h

Several values for one entry are separate records, joined by “and”; a condition that tells them apart may be missing. Identical values can stand only once.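 A five-concentration, 48-hour dose response in 96-well plates underlies each endpoint, interpolated linearly between surrounding concentrations. GI50 = concentration required for 50% inhibition of growth. TGI: total growth inhibition.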 A value given as a limit tells only on which side of the number the result lay.

With `O=C1CC2=CCCC2O1` (centres undefined), the TGI in the assay on M14 melanoma, in the assay with U251 CNS, with TK-10 renal, in the assay with SW-620 colon, in the assay with K-562 leukemia and with HOP-62 NSCLC was greater than 100 µM in each case.
With `CC(=O)CC(=O)Nc1ccc(OS(N)(=O)=O)cc1`, the TGI with M14 melanoma, in the assay with U251 CNS, with TK-10 renal, in the assay on SW-620 colon, in the assay on K-562 leukemia and in the assay with NCI-H226 lung was greater than 100 µM throughout. Further, the TGI in the assay on HOP-62 NSCLC is greater than 100 µM.
As for `CCOC(=O)N1C/C(=C\c2ccc(N(C)C)cc2)C(=O)/C(=C/c2ccc(N(C)C)cc2)C1`, the TGI with M14 melanoma, in the assay with U251 CNS, in the assay on TK-10 renal, in the assay on SW-620 colon, in the assay with K-562 leukemia and in the assay on HOP-62 NSCLC was greater than 100 µM each time.
In the case of `CC[P+](C)(C)CC`, the total growth inhibition concentration (TGI) with M14 melanoma, with U251 CNS, in the assay on TK-10 renal, in the assay on SW-620 colon, in the assay on K-562 leukemia and with NCI-H226 lung was greater than 100 µM in each case. The compound further returned a TGI with HOP-62 NSCLC greater than 100 µM.
`CC(C)CC1CC2C(=O)N(c3ccccc3)C(=O)C2c2[nH]c3ccccc3c21` (centres undefined): the TGI in the assay with M14 melanoma was greater than 100 µM; in the assay on U251 CNS it was greater than 65 µM; with TK-10 renal, greater than 40.1 µM; in the assay with SW-620 colon, greater than 100 µM; in the assay on K-562 leukemia it was greater than 42.7 µM; in the assay on NCI-H226 lung it was 66.1 µM. Also, the TGI in the assay on HOP-62 NSCLC is 47.8 µM.
With `COc1ccc(C2=NC(CO)[C@H](c3ccccc3)O2)cc1OC` (some centres undefined), the TGI with M14 melanoma, in the assay on SW-620 colon, in the assay on K-562 leukemia, in the assay with NCI-H226 lung and with HOP-62 NSCLC was greater than 100 µM throughout.
Regarding `NC(=O)c1c(-c2ccccc2)c(-c2ccccc2)cc2c(=O)c3ccccc3[nH]c12`, the TGI was greater than 100 µM with M14 melanoma; greater than 100 µM in the assay on U251 CNS; 35.6 µM with TK-10 renal; greater than 100 µM in the assay with SW-620 colon; greater than 100 µM in the assay with K-562 leukemia; 58.5 µM with HOP-62 NSCLC.
As to `O=C(OCc1ccccc1)N1N=NC2C3CC(OCc4ccccc4)(OCc4ccccc4)C(O3)C21` (centres undefined), the concentration for total growth inhibition (TGI) in the assay on M14 melanoma was greater than 100 µM; with U251 CNS, greater than 100 µM; in the assay on SW-620 colon, 80.5 µM; in the assay with K-562 leukemia it was 73.6 µM; in the assay on NCI-H226 lung, 41.8 µM; with HOP-62 NSCLC, greater than 100 µM.
On to `CCCOC(=O)C1C(c2ccc(OC)cc2)NC(c2ccc(OC)cc2)C(C(=O)OCCC)S1(=O)=O` (centres undefined), for which the GI50 with M14 melanoma, in the assay on U251 CNS, in the assay on TK-10 renal, in the assay on SW-620 colon, in the assay with K-562 leukemia and in the assay on NCI-H226 lung was greater than 100 µM in each case. In addition, the GI50 with HOP-62 NSCLC was greater than 100 µM. Moreover, the TGI with M14 melanoma, with U251 CNS, in the assay on TK-10 renal, in the assay on SW-620 colon, in the assay with K-562 leukemia and in the assay on NCI-H226 lung was greater than 100 µM in each case. This compound also returned a TGI in the assay on HOP-62 NSCLC greater than 100 µM.
With `COc1ccc(C)cc1-c1ccc(-c2cc(C)ccc2OC)o1`, the TGI with M14 melanoma, in the assay with U251 CNS, in the assay with TK-10 renal, in the assay on SW-620 colon, in the assay with K-562 leukemia and in the assay with NCI-H226 lung was greater than 100 µM throughout. Also, the TGI in the assay with HOP-62 NSCLC was greater than 100 µM.
As to `C=CCN=C1NC(=O)C(CC(=O)Nc2ccc([N+](=O)[O-])cc2[N+](=O)[O-])S1` (centres undefined), the TGI in the assay on M14 melanoma, with U251 CNS, in the assay with TK-10 renal, with SW-620 colon, in the assay with NCI-H226 lung and in the assay on HOP-62 NSCLC was greater than 100 µM each time.
Take `NNC(=O)C(=O)N/N=C1\CCCC1C(=O)CCC(=O)Nc1cccc(Cl)c1` (centres undefined): the TGI with M14 melanoma, in the assay on U251 CNS, in the assay with TK-10 renal, in the assay on SW-620 colon, in the assay with NCI-H226 lung and in the assay on HOP-62 NSCLC was greater than 100 µM each time.
As for `Oc1ccc(Br)cc1C=Nc1ccc(Oc2ccc(N=Cc3cc(Br)ccc3O)cc2)cc1`, the TGI in the assay on M14 melanoma, in the assay with U251 CNS, in the assay with TK-10 renal, with SW-620 colon, in the assay with K-562 leukemia and with NCI-H226 lung was greater than 19.6 µM in each case. Also, the TGI in the assay on HOP-62 NSCLC is greater than 19.6 µM.
For `O=S(=O)(c1ccccc1)C1(C2(S(=O)(=O)c3ccccc3)CCN=N2)CCN=N1` (centres undefined), the TGI in the assay on M14 melanoma, in the assay with U251 CNS, in the assay with TK-10 renal, in the assay with SW-620 colon, with K-562 leukemia and with NCI-H226 lung was greater than 100 µM in each case.
Consider `O=[N+]([O-])C(=C1c2ccccc2-c2ccccc21)[N+](=O)[O-]`, for which the TGI with M14 melanoma, in the assay with U251 CNS, in the assay with TK-10 renal, in the assay on SW-620 colon, in the assay on K-562 leukemia and in the assay on NCI-H226 lung was greater than 100 µM throughout. In the assay with HOP-62 NSCLC, this compound displayed a TGI greater than 100 µM.
On to `CC[C@@]1(O)C(=O)OCc2c1cc1n(c2=O)Cc2cc3c(N)c(OC)ccc3nc2-1`, for which the GI50 in the assay on M14 melanoma was 0.0403 µM; with U251 CNS it was less than 0.01 µM; with TK-10 renal, 2.26 µM; in the assay on SW-620 colon, 0.137 µM; in the assay on K-562 leukemia, 0.152 µM; in the assay on NCI-H226 lung it was 1.77 µM. Moreover, the GI50 with HOP-62 NSCLC was less than 0.01 µM. Moreover, the TGI in the assay on M14 melanoma is 0.339 µM; with U251 CNS, 0.201 µM; in the assay on TK-10 renal, greater than 50 µM; with SW-620 colon it was 2.87 µM; with NCI-H226 lung, greater than 100 µM; with HOP-62 NSCLC, 0.037 µM.
Take `Cc1ccc(C)c(NC(=O)C(=O)C(C2C(C)CC(=O)C2CC(=O)O)[N+](=O)[O-])c1` (centres undefined): the TGI with M14 melanoma, in the assay with U251 CNS, in the assay on TK-10 renal, in the assay on SW-620 colon, in the assay on K-562 leukemia and with NCI-H226 lung was greater than 100 µM each time. Also, the TGI in the assay with HOP-62 NSCLC was greater than 100 µM.
With `O=S(=O)([O-])c1ccc(C=Nc2ccccc2)c([O-])c1.O=S(=O)([O-])c1ccc(C=Nc2ccccc2)c([O-])c1.[Co+2]`, the GI50 in the assay on M14 melanoma was 6.5 µM; in the assay with TK-10 renal, greater than 100 µM; in the assay with SW-620 colon, 6.96 µM; with K-562 leukemia, 2.07 µM; in the assay on NCI-H226 lung it was 17.7 µM. Also, the TGI in the assay with M14 melanoma, in the assay with TK-10 renal, in the assay with SW-620 colon, with K-562 leukemia and with NCI-H226 lung was greater than 100 µM in each case.
As to `CCCCCCCCCCCCNC(=S)OCCCC`, the TGI with M14 melanoma, in the assay on U251 CNS, in the assay with TK-10 renal, in the assay with SW-620 colon, with K-562 leukemia and in the assay on HOP-62 NSCLC was greater than 100 µM each time.
On to `O=C1c2ccccc2C(=O)N1CCN(CCN1C(=O)c2ccccc2C1=O)Cc1ccccc1`, for which the TGI in the assay on M14 melanoma, in the assay with U251 CNS, in the assay with TK-10 renal, in the assay with SW-620 colon, in the assay on K-562 leukemia and with HOP-62 NSCLC was greater than 100 µM throughout.
For `CCOC(=O)C(c1ccsc1)P(=O)(OCC)OCC` (centres undefined), the TGI with M14 melanoma stood at 26.3 µM; in the assay on U251 CNS, 45.4 µM; with TK-10 renal, 41 µM; in the assay with SW-620 colon it was 30.8 µM; in the assay with NCI-H226 lung it was 35.8 µM; in the assay on HOP-62 NSCLC, 52 µM.
On to `COc1ccc(-c2cc(-c3ccco3)c(C#N)c(=O)n2C2OC(COC(C)=O)C(OC(C)=O)C(OC(C)=O)C2OC(C)=O)cc1` (centres undefined), for which the GI50 in the assay on M14 melanoma is > 100 µM and 23.2 µM; with U251 CNS, > 100 µM and 16.1 µM; with K-562 leukemia, 48.1 µM and 8.84 µM; in the assay on HOP-62 NSCLC, > 100 µM and 23 µM. Also, the TGI was > 100 µM and 52.5 µM in the assay with M14 melanoma; > 100 µM and 34.7 µM in the assay on U251 CNS; > 100 µM and 78.4 µM in the assay on TK-10 renal; greater than 100 µM in the assay with SW-620 colon; greater than 100 µM in the assay on K-562 leukemia; > 100 µM and 79.2 µM in the assay with HOP-62 NSCLC.
Consider `Nc1ncnc2c1ncn2C1(CO)OC(CO)C(O)C1O` (centres undefined), for which the TGI in the assay on M14 melanoma, with U251 CNS, in the assay on TK-10 renal, with SW-620 colon, in the assay with NCI-H226 lung and in the assay with HOP-62 NSCLC was greater than 100 µM in each case.
As to `CC1(C)CCOC(Sc2ccccc2)C1` (centres undefined), the TGI in the assay with M14 melanoma, with U251 CNS, with TK-10 renal, with SW-620 colon, with K-562 leukemia and in the assay with HOP-62 NSCLC was greater than 100 µM in each case.
As for `CN1C=C(C(N)=O)Cc2ccsc21`, the TGI in the assay with M14 melanoma, with U251 CNS, in the assay with SW-620 colon, with K-562 leukemia, in the assay with NCI-H226 lung and with HOP-62 NSCLC was greater than 100 µM throughout.
With `O=C1C=C(c2ccccc2)NC1(c1ccccc1)c1cc(-c2ccccc2)[nH]c1-c1ccccc1` (centres undefined), the TGI in the assay on M14 melanoma was greater than 100 µM; in the assay with U251 CNS, greater than 100 µM; in the assay with SW-620 colon, greater than 100 µM; with K-562 leukemia it was greater than 100 µM; with HOP-62 NSCLC, 19 µM.
